The source of these data is patent publication US10544136B2, “Modulators of sphingosine phosphate receptors” (The Scripps Research Institute, priority 2008, dated 2020).

Broadly, the EC50 is the concentration at which the effect is half-maximal. Low readings indicate higher potency in that assay, high ones lower potency in that assay.

The target in the first assay is S1P1 (Homo sapiens (Human), UniProt P21453). Kind of assay: S1P1 agonist assay (Ec50 S1P1Ag). The format is cell-based.
S1P1, sequence (P21453 whole entry): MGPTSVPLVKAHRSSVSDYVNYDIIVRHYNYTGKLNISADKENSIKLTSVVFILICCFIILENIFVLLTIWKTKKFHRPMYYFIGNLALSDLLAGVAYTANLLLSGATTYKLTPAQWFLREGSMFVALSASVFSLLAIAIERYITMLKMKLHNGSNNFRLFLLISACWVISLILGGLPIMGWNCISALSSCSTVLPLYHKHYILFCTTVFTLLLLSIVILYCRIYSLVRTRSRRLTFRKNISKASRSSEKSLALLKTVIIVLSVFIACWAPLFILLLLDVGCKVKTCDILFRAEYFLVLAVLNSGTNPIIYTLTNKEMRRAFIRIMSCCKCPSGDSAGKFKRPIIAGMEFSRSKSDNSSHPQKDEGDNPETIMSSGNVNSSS
Settings: not given
The text has this: The exact dosage will depend upon the activity of the compound, mode of administration, on the therapy desired, form in which administered, the subject to be treated and the body weight of the subject to be treated, and the preference and experience of the physician or veterinarian in charge. S1P1 agonist bioactivity of the compounds of the invention can be determined by use of an in vitro assay system which measures the activation of S1P1, which can be expressed as EC50 values, as are well known in the art inhibitors of the invention can be determined by the method described in the Examples.
In turn, `CCOc1ccc(-c2noc(-c3ccncc3)n2)cc1OCC` [Compound 257] displayed an EC50 of 0.0073 µM.

For the molecule `CCOc1ccc(-c2nnc(-c3ccncc3)[nH]2)cc1OCC` [Compound 93], it took 2.8 µM to reach a half-maximal effect (EC50). On to `CCOc1cccc(-c2nc(-c3ccnc(N)c3)no2)c1` [Compound 65], for which a half-maximal effect (EC50) was put at 0.319 µM. `COc1cc(OC)c(-c2nc(-c3ccncc3)no2)cc1OC` [Compound 11] registered an EC50 of 6.5 µM. The molecule `CCOc1ccc(-c2nc(-c3ccc(C4=NCCN4)cc3)no2)cc1OCC` [Compound 181] returned an EC50 of 0.733 µM. Same read-out and setting: under `CCOc1ccc(-c2nc(-c3ccnc(CN4CC[C@@H](O)C4)c3)no2)cc1OCC` [Compound 235] stands 0.0821 µM; under `CCOc1ccc(-c2nc(-c3ccnc(C(=O)NCCO)c3)no2)cc1OCC` [Compound 242], 0.0265 µM; under `Cc1ccc(-c2nc(-c3ccncc3)no2)cc1C(F)(F)F` [Compound 49], 0.487 µM. Still for that read-out and setting: the value for `CCOc1ccc(-c2nc(-c3cccc4c3CCC4NCCO)no2)cc1C(F)(F)F` (stereo not shown) [Compound 264, 2-(4-(5-(4-ethoxy-3-(trifluoromethyl)phenyl)-1,2,4-oxadiazol-3-yl)-2,3-dihydro-1H-inden-1-ylamino)ethanol] was 0.008 µM. Regarding `CCOc1ccc(-c2nc(-c3ccnc(CNCCN(CC)CC)c3)no2)cc1OCC` [Compound 226], the 50% effective concentration (EC50) turned out to be 0.0027 µM. Same read-out and setting: the value for `CCOc1ccc(-c2nc(-c3ccc4[nH]cc(CNCCN(C)C)c4c3)no2)cc1OCC` [Compound 238] was 0.686 µM.

In the case of `CC(C)Oc1ccc(-c2ncc(-c3cccc4c3CCC4O)o2)cc1C#N` (stereo not shown) [Compound 270], the half-maximal effective concentration (EC50) was determined as 0.0025 µM. Regarding `c1ccc(Cc2nc(-c3ccncc3)no2)cc1` [Compound 105], the midpoint of the response, the EC50, lay at 8.4 µM. This EC50 lies about 3400-fold higher than the previous one. On to `CCOc1ccc(-c2nc(-c3ccc(CN4CCCC4)cc3C)no2)cc1OCC` [Compound 125], for which the response was half-maximal at 0.171 µM (EC50).

`CCOc1ccc(-c2nc(-c3cccc4c3CCC4O)no2)cc1OCC` (stereo not shown) [Compound 215, 4-(5-(3,4-diethoxyphenyl)-1,2,4-oxadiazol-3-yl)-2,3-dihydro-1H-inden-1-ol]: the EC50 is 0.0001 µM. Consider `Nc1cc(-c2nc(-c3ccc(S(N)(=O)=O)cc3)no2)ccn1` [Compound 18], for which a half-maximal response (EC50) required 0.397 µM. This EC50 lies about 4000-fold higher than the previous one. Molecule `CCOc1ccc(-c2nc(-c3ccccn3)no2)cc1OCC` [Compound 33] gave an EC50 of 0.116 µM. For `CCOc1ccc(-c2nc(-c3nccc4ccccc34)no2)cc1OCC` [Compound 219], the EC50 came out at 0.013 µM. In turn, `CCn1nc(C)cc1-c1nc(-c2ccncc2)no1` [Compound 57] gave an EC50 of 0.29 µM. Regarding `COc1cc(-c2noc(-c3cc(C)nc(Cl)c3)n2)ccc1C` [Compound 28], the EC50 stood at 0.477 µM.

“4-(5-(4-isopropoxy-3-(trifluoromethyl)phenyl)-1,2,4-oxadiazol-3-yl)-2,3-dihydro-1H-inden-1-ol [Compound 261]” yielded an EC50 of less than 0.0005 µM. With `CCOc1ccc(-c2nc(-c3ccc(N4CCN(C)CC4)cc3C)no2)cc1OCC` [Compound 100], the EC50 came to 0.0863 µM. Turning to `c1cc(-c2noc(-c3ccc(C4CCCCC4)cc3)n2)ccn1` [Compound 56], a half-maximal effect (EC50) was put at 0.0834 µM. `CCOc1ccc(-c2nc(-c3ccc4c(c3)CCN4CCCO)no2)cc1OCC` [Compound 258] returned an EC50 of 0.001 µM. On the same count and under the same terms, under `COc1cc(-c2noc(Cc3ccncc3)n2)ccc1C` [Compound 42] stands 0.909 µM.

The molecule `CCC(c1ccccc1)c1nc(-c2ccncc2)no1` (stereo not shown) [Compound 109] had an EC50 of 1.5 µM. `CCOc1ccc(-c2nc(-c3ccc(CN(C)C)cc3C)no2)cc1OCC` [Compound 128] yielded an EC50 of 0.0191 µM.

Still in this assay, the particulars now being: unit μM/uM.
Regarding `CC(C)COc1ccc(-c2nc(-c3ccncc3)no2)cc1` [Compound 9], the response was half-maximal at 68.4 µM (EC50). This lies in the double-digit micromolar range. Take `CCOc1cccc(-c2nc(-c3cccnc3)no2)c1` [Compound 67]: it took 95.5 µM to reach a half-maximal effect (EC50).

`COc1ccc(-c2nc(-c3ccccc3)no2)cc1` [Compound 8] registered an EC50 of 73 µM.

In turn, `FC(F)(F)c1ccc(-c2noc(-c3cccnc3)n2)cc1` [Compound 2] returned an EC50 of 6.5 µM.
